According to patent US20220265691A1, “METHODS FOR USE OF GENE EXPRESSION AS AN INDICATOR OF E-SELECTIN INHIBITOR EFFICACY AND CLINICAL OUTCOME FOR MULTIPLE TUMOR TYPES” (GLYCOMIMETICS, INC., priority 2019, published 2022):

Assays:
[1] = tested on: relapsed or refractory AML; test: Phase I/II trial of Formula I in combination with chemotherapy for AML; assay type: in vivo, human; details: for overall survival (OS): Formula I plus chemotherapy
Procedure: Phase I/II trial of Formula I in combination with chemotherapy for AML: A specific glycomimetic antagonist of E-selectin (Formula I) was rationally designed based on the bioactive conformation of sialyl Le^a/x in the binding site of E-selectin. Treatment of AML relapsed/refractory patients with the compound of Formula I and chemotherapy were evaluated for response. In a Phase I trial, 19 patients were treated with the compound of Formula I twice a day at 5 mg/kg (n=6), 10 mg/kg (n=7), and 20 mg/kg doses (n=6), in combination with induction MEC (mitoxantrone, epotoside, and cytarabine) chemotherapy. In a Phase II trial, the treatment regimen comprised one 10 mg/kg dose of the compound of Formula I 24 hours prior to chemotherapy, then twice daily 10 mg/kg doses of the compound of Formula I throughout either MEC (mitoxantrone, etoposide, and cytarabine) or 7+3 (cytarabine for 7 days followed by 3 days of daunorubicin, idarubicin or mitoxantrone) chemotherapy up till 48 hours post-chemotherapy. AML blasts from the patients' bone marrow and peripheral blood were isolated, and the expression of E-selectin ligand on the blasts was measured using immunofluorescence. Patient response to treatment was also assessed.

[2] = target: T1, E-selectin (Homo sapiens, UniProt P16581); test: E-Selectin Activity - competitive binding assay (sLea polyacrylamide / immobilized E-selectin/Ig chimera); details: inhibition of sLea conjugate binding to immobilized E-selectin/Ig chimera; read-out: IC50 (E-Selectin Antagonist Activity)
T1 construct: fused on or other part: Immunoglobulin (Ig) part fused to E-selectin as a handle for immobilisation
T1 sequence (P16581 22-175 limits assumed): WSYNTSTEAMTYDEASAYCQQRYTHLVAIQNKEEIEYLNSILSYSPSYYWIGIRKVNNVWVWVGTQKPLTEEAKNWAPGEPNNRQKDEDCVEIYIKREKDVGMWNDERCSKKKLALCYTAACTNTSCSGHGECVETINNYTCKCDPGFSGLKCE
Procedure: The inhibition assay to screen and characterize antagonists of E-selectin is a competitive binding assay, from which IC50 values may be determined. E-selectin/Ig chimera are immobilized in 96 well microtiter plates by incubation at 37° C. for 2 hours. To reduce nonspecific binding, bovine serum albumin is added to each well and incubated at room temperature for 2 hours. The plate is washed and serial dilutions of the test compounds are added to the wells in the presence of conjugates of biotinylated, sLea polyacrylamide with streptavidin/horseradish peroxidase and incubated for 2 hours at room temperature.
To determine the amount of sLe^a bound to immobilized E-selectin after washing, the peroxidase substrate, 3,3′,5,5′ tetramethylbenzidine (TMB) is added. After 3 minutes, the enzyme reaction is stopped by the addition of H3PO4, and the absorbance of light at a wavelength of 450 nm is determined. The concentration of test compound required to inhibit binding by 50% is determined.

In the case of `CCC1CC(C(=O)NCCNC(=O)CCOCCOCCOCCOCCOCCOCCOCCOCCOCCOCCOCCOC)C[C@@H](O[C@@H]2O[C@@H](CO)[C@H](O)C(O[C@@H](CC3CCCCC3)C(=O)O)C2NC(C)=O)[C@@H]1OC1O[C@@H](C)[C@H](O)C(O)[C@@H]1O` (some centres unmarked) [compound of Formula I], the “overall survival (OS)” value ([1]; patients with greater than 10% of blasts expressing E-selectin ligand (HECA-452; high expressers)) is reported as 12.7 months, the “overall survival (OS)” value ([1]; patients with less than 10% blasts expressing E-selectin ligand (HECA-452; low expressers)) is reported as 5.2 months and the “response rate (CR/CRi)” value ([1]; patients with relapsed or refractory AML, compound of Formula I plus chemotherapy) is reported as 41%. The “CR/CRi rate after a single course of induction treatment” value ([1]; relapsed or refractory AML, single course of induction, higher than historical controls treated with MEC) was 47%.
`CCC1CC(C(=O)NCCNC(=O)c2cn(CC(COS(=O)(=O)O)(COS(=O)(=O)O)COS(=O)(=O)O)nn2)C[C@@H](O[C@@H]2OC(CO)[C@H](O)C(O[C@@H](CC3CCCCC3)C(=O)O)C2NC(=O)Cn2cc(COCCOCCOCCOCCOCc3cn(CC(=O)NC4C(O[C@@H](CC5CCCCC5)C(=O)O)[C@@H](O)C(CO)O[C@H]4O[C@@H]4CC(C(=O)NCCNC(=O)c5cn(CC(COS(=O)(=O)O)(COS(=O)(=O)O)COS(=O)(=O)O)nn5)CC(CC)C4O[C@@H]4OC(C)[C@@H](O)C(O)C4O)nn3)nn2)C1O[C@@H]1OC(C)[C@@H](O)C(O)C1O` (some centres unmarked) [Compound 206] showed an IC50 [2] of 1.6 nM.
